Series [1] concerns the target T1, PARP1 (Homo sapiens, UniProt P09874).
T1 construct: purchased BPS Bioscience (San Diego, CA)
Particulars: cited from earlier work.

Series [2] deals with T2, PARP2 (Homo sapiens, UniProt Q9UGN5).
T2 construct: purchased BPS Bioscience (San Diego, CA)
To be noted: cited from earlier work; for selectivity index (SI): PARP2 selectivity.

For series [3], the target named is T1, PARP1. Put plainly: PARP1 colorimetric activity assay kit (BPS Bioscience). It is filed as biochemical. Particulars: for IC50: dose-response, mean (n = 3) ± SD, r^2 in brackets; for inhibition at 1 µM: read-out: PARP1 % inhibition at 1 µM, 1 µM compound, triplicate (n = 3). The protocol: (§1) The thirty-six 1-oxo-3,4-dihydroisoquinoline-4-carboxamides 3a-aj and 1-oxoisoquinoline-4-carboxamide 11 were tested for inhibitory activity towards PARP1 and PARP2 using the commercially available colorimetric activity assay kit from BPS Bioscience (San Diego, CA) in full accordance of the supplier’s method description[13]^,[14]. The initial screening was performed against PARP1 at 1 µM concentration of each compound, in triplicate (n = 3) measurements.

For series [4], the target named is T2, PARP2. Put plainly: PARP2 colorimetric activity assay kit (BPS Bioscience). The series is classed as biochemical. To be noted: for IC50: dose-response, mean (n = 3) ± SD, r^2 in brackets. Here is the method: as §1
Series [5] is described as follows: Aqueous PBS solubility determination. The series is classed as physicochemical. To be noted: sodium phosphate buffer, kinetic from dmso stock, pH 7.4 0.01 M phosphate buffer solution, 37 °C. Here is the method:
The stock solution of the compound tested in DMSO (10 mM) was diluted with 0.01 M sodium phosphate buffer solution (pH 7.4) to the concentration of 100 µM, 80 µM, 60 µM, 50 µM, 40 µM, 30 µM, 20 µM and 10 µM. The serially diluted solutions were transferred into a 96-well plate (Corning 3635, UV Plate) and the plate was incubated at 37 °C for 2 h using BioSan PST-60HL-4 thermo shaker. The plate was read at the wavelength of 620 nm using spectrophotometric microplate reader Sunrise (Tecan, Australia). The optical density values were plotted against compound concentration and approximated by a linear relationship to determine the aqueous solubility.

Series [6] is described as follows: Stability in human liver S9 fraction. It is filed as in vitro ADME. To be noted: human liver S9 0.5 mg/mL, 10 μM compound, 37 °C; intrinsic clearance. The protocol: (§2) The rate of enzymatic degradation of the compound in liver microsomes was determined by incubating a mixture containing 0.5 mg/mL of pooled human liver microsomes (XenoTech, USA, cat. # H2620), 10 μM of compound tested, 2 mM β-nicotinamide adenine dinucleotide (Carbosynth, UK, cat. # NN10871) and 4 mM magnesium chloride in 0.1 M sodium phosphate buffer (pH 7.4) in a solid-state thermostat at 37 °C. The rate of enzymatic degradation of the compound in human liver S9 fraction was determined by incubating a reaction mixture containing 0.5 mg/mL of pooled S9 human liver fractions (XenoTech, USA, cat # H0610), 10 μM of compound tested, 2 mM β-nicotinamide adenine dinucleotide (Carbosynth, UK, cat # NN10871) and 4 mM magnesium chloride in 0.1 M sodium phosphate buffer (pH 7.4) in a solid-state thermostat at 37 °C. The reaction was stopped with acetonitrile (100 μL MeCN per 100 μL of the reaction mixture). After stopping the reaction, the samples were centrifuged for 10 min at 10,000 rpm. The supernatant was analysed by chromatography using an Agilent 1260 chromatograph (Agilent, United States). Chromatographic analysis was performed in a gradient elution mode at a flow rate of 1 ml/min. A graph of the dependence of the logarithm of the area of the peak of the substance on time was built. The dependent coefficient of this straight line corresponded to the elimination constant k, on the basis of which the half-life of the drug (T1/2) and intrinsic clearance (Clint) were calculated.

The nature of series [7]: Stability in human liver microsomes. It is filed as in vitro ADME. To be noted: HLM 0.5 mg/mL, 10 μM compound, 37 °C; intrinsic clearance. Here is the method:
as §2
On the technique in general: Liver microsomes are vesicles of endoplasmic reticulum, rich in cytochrome P450 enzymes.

A short description of series [8]: Plasma stability determination. Particulars: 4 h, 37 °C, 10 μM. The series is classed as in vitro ADME, human. Here is the method:
Determination of stability in human blood plasma was carried out using pooled human blood plasma obtained from ten healthy donors. The candidate stock solution (10 mM in DMSO) was diluted with the pooled blood plasma to a concentration of 10 μM (test solution). The test solution was kept in a solid-state thermostat for 4 h at a temperature of 37 °C. HPLC method using an Agilent 1260 chromatograph (Agilent, USA) was employed to determine the peak area of the compounds in the test samples corresponding to the initial test time (before exposure) and the final test time (after incubation in a solid-state thermostat for 4 h at 37 °C) with preliminary precipitation of protein mass with acetonitrile (300 μL MeCN per 100 μL of the reaction mixture). After stopping the reaction, the samples were centrifuged for 10 min at 10,000 rpm and the supernatant was collected. Chromatographic analysis was performed in a gradient elution mode at a flow rate of 1 ml/min.

Series [9] can be described thus: Plasma protein binding determination (RED dialysis). It is filed as in vitro ADME. Particulars: pooled human blood plasma, 37 °C, read-out: plasma protein binding (% bound) (converted). The protocol:
Determination of binding to human blood plasma proteins was carried out using pooled human blood plasma obtained from ten healthy donors. Determination was performed using Thermo Scientific ™ Single-RED dialysis plates. Test solutions of the candidate (10 mM in DMSO) were prepared in blood plasma and in 0.01 M sodium phosphate buffer by dilution in pooled blood plasma to a concentration of 10 μM (test solution 1) and in buffer to a concentration of 10 μM (test solution 2), respectively. The test solutions were transferred to the chambers of the dialysis plate, incubated in an Environmental Shaker – Incubator ES-20/60 (Biosan, Latvia) for 4 h at a temperature of 37 °C at a speed of 130–250 rpm. During the incubation, passive diffusion of the unbound compound occurs, and after 4 h, equilibrium is reached between the chambers with plasma with buffer solution. At the end of the incubation time, samples were taken from the chambers of the plate. HPLC analysis performed using an Agilent 1260 chromatograph (Agilent, USA) allowed determination of the peak area of the compounds in the test samples with preliminary precipitation of proteins with acetonitrile (300 µL of acetonitrile per 100 µL of the reaction mixture). After stopping the reaction, the samples were centrifuged for 10 min at 10,000 rpm and the supernatant was collected.
The concentration of the test compound in the buffer and plasma chambers was calculated using the formula: С=At=4/At=0×10, where At=0 is the value of the peak area of the candidate's test solution on the chromatogram at the initial moment of time;
The % unbound compound was calculated using the formula: %Free=C1/C2×100, where C1 is the concentration value in the buffer chamber;

Where two headings read alike, the source gives them in different places.

As usually defined, the IC50 is the concentration needed to halve the response being measured. By inhibition is commonly meant the share of the control response that was lost under treatment. What is called solubility is the concentration that dissolves in the medium under given conditions. As usually defined, the melting point is the temperature of the solid-liquid transition.

T2 sequence (Q9UGN5 whole entry): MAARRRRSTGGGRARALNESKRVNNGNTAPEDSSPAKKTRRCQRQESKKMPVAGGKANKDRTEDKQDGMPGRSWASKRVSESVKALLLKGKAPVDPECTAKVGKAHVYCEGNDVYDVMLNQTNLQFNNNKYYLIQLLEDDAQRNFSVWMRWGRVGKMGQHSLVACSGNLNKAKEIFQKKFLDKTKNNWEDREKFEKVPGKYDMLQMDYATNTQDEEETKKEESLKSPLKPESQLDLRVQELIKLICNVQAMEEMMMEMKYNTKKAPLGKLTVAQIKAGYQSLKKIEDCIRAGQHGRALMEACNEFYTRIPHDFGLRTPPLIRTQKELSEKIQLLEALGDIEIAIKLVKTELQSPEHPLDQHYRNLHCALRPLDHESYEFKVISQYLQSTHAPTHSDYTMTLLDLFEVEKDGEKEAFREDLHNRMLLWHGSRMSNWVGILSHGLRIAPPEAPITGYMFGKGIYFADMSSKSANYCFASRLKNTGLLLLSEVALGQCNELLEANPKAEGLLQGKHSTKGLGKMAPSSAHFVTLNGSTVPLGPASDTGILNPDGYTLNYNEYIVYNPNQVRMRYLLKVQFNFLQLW
T1 sequence (P09874 whole entry): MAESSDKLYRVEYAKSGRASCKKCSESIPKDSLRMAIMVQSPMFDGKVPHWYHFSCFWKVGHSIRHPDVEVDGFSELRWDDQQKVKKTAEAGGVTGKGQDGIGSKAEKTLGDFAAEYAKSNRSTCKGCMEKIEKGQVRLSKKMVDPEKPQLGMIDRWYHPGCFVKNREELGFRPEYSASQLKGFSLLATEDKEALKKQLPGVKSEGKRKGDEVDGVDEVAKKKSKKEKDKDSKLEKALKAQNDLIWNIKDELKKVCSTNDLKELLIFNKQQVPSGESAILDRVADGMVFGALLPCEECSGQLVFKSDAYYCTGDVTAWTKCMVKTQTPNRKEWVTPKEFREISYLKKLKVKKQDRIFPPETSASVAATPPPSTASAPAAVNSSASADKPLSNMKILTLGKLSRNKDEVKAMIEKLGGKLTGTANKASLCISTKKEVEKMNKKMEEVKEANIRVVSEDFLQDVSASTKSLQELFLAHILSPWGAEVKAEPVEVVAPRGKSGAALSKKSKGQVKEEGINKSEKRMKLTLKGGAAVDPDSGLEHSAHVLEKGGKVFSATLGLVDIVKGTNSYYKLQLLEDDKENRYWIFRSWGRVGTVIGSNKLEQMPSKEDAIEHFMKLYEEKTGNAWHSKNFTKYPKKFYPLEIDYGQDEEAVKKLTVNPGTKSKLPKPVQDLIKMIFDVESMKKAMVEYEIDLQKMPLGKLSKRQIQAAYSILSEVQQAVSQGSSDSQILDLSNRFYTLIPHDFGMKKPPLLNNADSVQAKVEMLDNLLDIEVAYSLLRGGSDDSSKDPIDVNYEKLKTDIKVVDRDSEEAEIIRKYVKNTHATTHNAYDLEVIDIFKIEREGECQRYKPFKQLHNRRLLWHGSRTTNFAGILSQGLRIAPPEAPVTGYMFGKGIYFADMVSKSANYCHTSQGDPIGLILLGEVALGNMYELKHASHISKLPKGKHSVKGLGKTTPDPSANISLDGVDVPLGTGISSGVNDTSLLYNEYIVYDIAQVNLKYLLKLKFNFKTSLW

Consider `O=C(Oc1cccc2c1CCNC2=O)c1ccccc1` [Compound 1a], for which the 50% inhibitory concentration (IC50) in [1] was 13000 nM. For the same compound, in series [2], the “selectivity index (SI)” value is recorded as 16.3 and the IC50 was 800 nM.

Regarding `O=C(Oc1cccc2c(=O)[nH]ccc12)c1ccccc1` [Compound 1b], the IC50 in series [1] is 9000 nM. Further, in series [2], the “selectivity index (SI)” value is recorded as 60.0 and the half-maximal inhibitory concentration (IC50) was 150 nM.

As to `O=C(Nc1cccc2c(=O)[nH]ccc12)c1ccccc1` [Compound 2], the 50% inhibitory concentration (IC50) in [2] was 1500 nM.

Turning to `O=C1NCC(C(=O)N2CCC(N3CCCCC3)CC2)c2ccc(F)cc21` (centres unmarked) [Compound 3aa, 4-([1,4'-Bipiperidine]-1'-carbonyl)-7-fluoro-3,4-dihydroisoquinolin-1(2H)-one], in series [3], the IC50 is 63.1 ± 5.3 nM and the inhibition at 1 µM amounted to 91.8 ± 0.7%. In series [3] (magic fluorine effect, 3aa vs 3l), the “fold better potency compared to 3l” value is given as ~2.5 fold. Besides, in series [4], the “SI, selectivity index (PARP2 over PARP1)” value is listed as 2.17 and the half-inhibitory concentration (IC50) turned out to be 29.4 ± 4.5 nM. In addition, in series [5], the solubility at 2 h was > 100 µM. Besides, the “Stability in the presence of hepatic S9 fraction” value in [6] is on record as 0.1 µL/min/mg. Besides, in [7], the “Stability in the presence of human liver microsomes” value was found to be 3.4 µL/min/mg. Moreover, the “% compound remaining after incubation with human plasma” value (“% compound remaining after incubation” below) in series [8] stood at 100%. The fraction unbound at 4 h, 10 µM in [9] was 0.29.

Compound `CC1(C)CCCN(C2CCN(C(=O)C3CNC(=O)c4cc(F)ccc43)CC2)C1` (centres unmarked) [Compound 3af, 4–(3,3-Dimethyl-[1,4'-bipiperidine]-1'-carbonyl)-7-fluoro-3,4-dihydroisoquinolin-1(2H)-one] showed a melting point of 182 to 183 °C. Moreover, in series [3], the 50% inhibitory concentration (IC50) is 95.6 ± 11.5 nM and the inhibition at 1 µM was determined as 96.9 ± 0.5%. In series [4], the “SI, selectivity index (PARP2 over PARP1)” value is on record as 5.05 and half-maximal inhibition (IC50) was put at 19.4 ± 3.7 nM.

`CC1(C)CCN(C2CCN(C(=O)C3CNC(=O)c4cc(F)ccc43)CC2)CC1` (centres unmarked) [Compound 3ag, 4–(4,4-Dimethyl-[1,4'-bipiperidine]-1'-carbonyl)-7-fluoro-3,4-dihydroisoquinolin-1(2H)-one] displayed a melting point of 200 to 201 °C. For the same compound, in series [3], the half-inhibitory concentration (IC50) stood at 102 ± 9.4 nM and the inhibition at 1 µM was 95 ± 0.9%. Further, in series [4], the “SI, selectivity index (PARP2 over PARP1)” value was 4.63 and half-maximal inhibition (IC50) required 22 ± 5.6 nM.

`COC1CCN(C2CCN(C(=O)C3CNC(=O)c4cc(F)ccc43)CC2)CC1` (centres unmarked) [Compound 3aj, 7-Fluoro-4–(4-methoxy-[1,4'-bipiperidine]-1'-carbonyl)-3,4-dihydroisoquinolin-1(2H)-one] registered a melting point of 186 to 187 °C. In series [3], the IC50 came out at 266 ± 25 nM and the inhibition at 1 µM is 90.5 ± 0.1%. Besides, in series [4], the “SI, selectivity index (PARP2 over PARP1)” value is 6.05 and 44.1 ± 3.9 nM corresponded to half-maximal inhibition (IC50).

For `O=C1NCC(C(=O)N2CCC(N3CCCCC3)CC2)c2ccccc21` (centres unmarked) [Compound 3l, 4-([1,4'-Bipiperidine]-1'-carbonyl)-3,4-dihydroisoquinolin-1(2H)-one], the “PARP1 inhibitory potency in words” value in series [3] (compared with 3l) is given as “active”. For the same compound, in series [3], the midpoint of inhibition, the IC50, lay at 156 ± 5.8 nM and the inhibition at 1 µM is 85.2 ± 2.6%. In series [4], the “SI, selectivity index (PARP2 over PARP1)” value was 2.23 and the IC50 amounted to 70.1 ± 7.6 nM. Also, in series [5], the solubility at 2 h is > 100 µM. For the same compound, in series [6], the “Stability in the presence of hepatic S9 fraction” value turned out to be 0.3 µL/min/mg. Also, in series [7], the “Stability in the presence of human liver microsomes” value came to 2.6 µL/min/mg. Moreover, in [8], the “% compound remaining after incubation” value is 92.6%. Also, the fraction unbound at 4 h, 10 µM in series [9] is 0.332.

On to `O=C(c1cc(Cc2n[nH]c(=O)c3ccccc23)ccc1F)N1CCN(C(=O)C2CC2)CC1` [Olaparib, reference compound], for which, in series [5], the solubility at 2 h is > 100 µM. For the same compound, the “Stability in the presence of hepatic S9 fraction” value in [6] worked out at 1.1 µL/min/mg. For the same compound, the “Stability in the presence of human liver microsomes” value in series [7] is 15 µL/min/mg. Besides, the “% compound remaining after incubation” value in series [8] came out at 100%. Further, the fraction unbound at 4 h, 10 µM in [9] was 0.098.

The values are drawn from paper PMC8425678, “1-Oxo-3,4-dihydroisoquinoline-4-carboxamides as novel druglike inhibitors of poly(ADP-ribose) polymerase (PARP) with favourable ADME characteristics” (Journal of Enzyme Inhibition and Medicinal Chemistry, 2021).
